MIC data for 18 compounds are collected here from US10815238B2, “Antimicrobial compounds and methods of making and using the same” (BIOVERSYS AG, priority 2013, dated 2020).

A word on the MIC: it is the lowest concentration found to suppress growth.

The test system of test [1] is Staphylococcus aureus (S. aureus) 11540 strain. The test can be described thus: Standard microdilution assay, MIC against S. aureus 11540. Conditions: S. aureus 11540 strain, standard microdilution assay, cutoff 16 micrograms/mL, read-out: MIC S. aureus. In kind it is cell-based. Here is the method:
The in vitro activity of the compounds of the present invention can be determined. Antimicrobial testing is typically performed to determine the minimum inhibitory concentration (MIC). Minimum inhibitory concentrations (MICs) are determined by the microdilution method in a final volume of 100 μl according to protocols outlined by The Clinical and Laboratory Standards Institute (CLSI). Performance standards for reference strains are assessed within the same experimental design to maintain quality control. See, for example, Clinical Laboratory Standards Institute: Methods for dilution antimicrobial susceptibility tests for bacteria that grow aerobically M7-A8. Approved Standard-Eighth Edition. Wayne, Pa.: CLSI; December 2008; and Clinical Laboratory Standards Institute: Performance Standards for Antimicrobial Susceptibility Testing M100-S20; Approved Standard-Twentieth Edition. Wayne, Pa.: CLSI; June 2010.
The compounds of the present invention were tested for antimicrobial activity. The Compounds 1-582 were run against Eschericia coli (E. coli) strain ATCC25922 and Compounds 320-582 were run against Staphylococcus aureus (S. aureus) 11540 strain using a standard microdilution assay to determine minimum inhibitory concentrations (MICs). […] It will be recognized by one skilled in the art that the compounds can be assessed against other bacterial organisms and that the presentation of data for activity against Eschericia coli and Staphylococcus aureus are illustrative and in no way is intended to limit the scope of the present invention. The compounds of the present invention can be assayed against a range of other microorganisms depending upon the performance activity desired to be gathered. Furthermore, the “+” and “−” representation and the selection of a cutoff value of 16 micrograms/mL is also illustrative and in no way is intended to limit the scope of the present invention.
(Dilution methods test growth across graded concentrations, often in twofold steps.)

The test system of test [2] is Eschericia coli (E. coli) strain ATCC25922. The test can be described thus: Standard microdilution assay, MIC against E. coli ATCC25922. The test is classed as cell-based. The following applies: Escherichia coli; E. coli strain ATCC25922, standard microdilution assay; cutoff 16 micrograms/mL; read-out: MIC E. Coli. The method in brief: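 MIC determined by broth microdilution following CLSI protocols, with reference strains run in parallel for quality control. Activity scored +/− at a cutoff of 16 micrograms/mL.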

For `C[C@H](N)CCN1CC[C@@H](c2cc3cn(-c4ccc([C@H](C)NCCCNC(=N)N)cc4)c(=O)nc3[nH]2)C1` [Compound 573], the MIC in test [1] and in test [2] was under 16 µg/mL in each case.

As for `CNC(=O)CC[C@@H]1CCC[C@@H](c2ccc(-n3cc4cc(-c5cc(CCC[C@H](C)N)cc(Cl)c5F)[nH]c4nc3=O)cc2)N1` [Compound 513], the MIC in test [1] and in test [2] was over 16 µg/mL throughout.

With `C[C@H](N)CCCc1cccc(-c2cc3cn(-c4ccc([C@H](C)NCCCNC(=N)N)cc4)c(=O)nc3[nH]2)c1` [Compound 521], the minimal inhibitory concentration (MIC) in test [1] and in test [2] was under 16 µg/mL in each case.

For `C[C@H](N)CCCc1cc(Cl)c(F)c(-c2cc3cn(-c4ccc(CN[C@@H](CN)CCNC(=N)N)cc4)c(=O)nc3[nH]2)c1` [Compound 379], the MIC in test [1] and in test [2] was under 16 µg/mL throughout.

Consider `COC[C@@H](CCN[C@@H](C)c1ccc(-n2cc3cc(-c4cc(CCC[C@H](C)N)cc(OC(F)(F)F)c4F)[nH]c3nc2=O)cc1)NC(=N)N` [Compound 329], for which the MIC in test [1] and in test [2] was under 16 µg/mL each time.

Consider `CC1=NCC[C@@H]2CCC[C@@H](c3ccc(-n4cc5cc(-c6cc(CCC[C@H](C)N)cc(Cl)c6F)[nH]c5nc4=O)cc3)N12` [Compound 568], for which the MIC in test [1] is under 16 µg/mL; in test [2], over 16 µg/mL.

Regarding `Cc1cc(OC[C@@H](CCNC(=N)N)NCc2ccc(-n3cc4cc(-c5cc(CCC[C@H](C)N)cc(Cl)c5F)[nH]c4nc3=O)cc2)no1` [Compound 518], the MIC in test [1] and in test [2] was under 16 µg/mL throughout.

As to `C[C@H](CN)COC(=O)N1CC[C@@H](c2cc3cn(-c4ccc(CNCCCNC(=N)N)cc4)c(=O)nc3[nH]2)C1` [Compound 571], the MIC in test [1] and in test [2] was under 16 µg/mL throughout.

`C[C@H](N)CCCc1cc(Cl)c(F)c(-c2cc3cn(-c4ccc([C@@H]5CCO[C@@H](CCCNC(=N)N)C5)cc4)c(=O)nc3[nH]2)c1` [Compound 523]: the MIC in test [1] and in test [2] was under 16 µg/mL in each case.

As for `C[C@H](N)CCCc1cc(Cl)c(F)c(-c2cc3cn(-c4ccc([C@@H]5CCC[C@@H](CNCc6ccncc6)N5)cc4)c(=O)nc3[nH]2)c1` [Compound 558], the MIC in test [1] and in test [2] was under 16 µg/mL each time.

For the compound `C[C@H](N)CCCN1CC[C@@H](c2cc3cn(-c4ccc(CNCCCNC(=N)N)cc4)c(=O)nc3[nH]2)C1` [Compound 577], the MIC in test [1] and in test [2] was under 16 µg/mL each time.

Regarding `N=C(N)NCC[C@H](CO)NCc1ccc(-n2cc3cc(-c4cc(CCC[C@@H](N)CO)cc(Cl)c4F)[nH]c3nc2=O)cc1` [Compound 377], the MIC in test [1] and in test [2] was under 16 µg/mL in each case.

With `N=C(N)N[C@H](CN)CCNCc1ccc(-n2cc3cc(-c4cc(CCC[C@@H](N)CO)cc(Cl)c4F)[nH]c3nc2=O)cc1` [Compound 393], the MIC in test [1] and in test [2] was under 16 µg/mL each time.

With `C[C@H](N)CCCc1cc(OC(F)(F)F)c(F)c(-c2cc3cn(-c4ccc([C@@H]5CC(CCN)CN5)cc4)c(=O)nc3[nH]2)c1` (stereo partly drawn) [Compound 409], the MIC in test [1] and in test [2] was under 16 µg/mL each time.

With `C[C@H](N)CCCc1cc(Cl)c(F)c(-c2cc3cn(-c4ccc(CO[C@H](CCNC(=N)N)CNc5nccs5)cc4)c(=O)nc3[nH]2)c1` [Compound 534], the MIC in test [1] and in test [2] was under 16 µg/mL throughout.

In the case of `C[C@H](N)CC[C@H](N)c1cc(Cl)c(F)c(-c2cc3cn(-c4ccc([C@H](C)NCCCNC(=N)N)cc4)c(=O)nc3[nH]2)c1` [Compound 342], the MIC in test [1] and in test [2] was under 16 µg/mL throughout.

As for `C[C@H](N)CCCc1cc(Cl)c(F)c(-c2cc3cn(-c4ccc([C@H](C)N(C=O)CCCNC(=N)N)cc4)c(=O)nc3[nH]2)c1` [Compound 400], the MIC in test [1] and in test [2] was under 16 µg/mL each time.

Take `C[C@H](N)CCCc1cc(Cl)c(F)c(-c2cc3cn(-c4ccc(C5(CCNC(=N)N)CNC5)cc4)c(=O)nc3[nH]2)c1` [Compound 434]: the MIC in test [1] and in test [2] was under 16 µg/mL each time.
